Columns and labels:
[1] = Inhibition of [gamma-32P]-ATP binding to protein kinase C (1.5 ng) done for 10 min in pH 7.4 at 37 degree C with compound dissolved in DMSO using in In-Plate assay
[2] = target: T1, High affinity nerve growth factor receptor (Homo sapiens, UniProt P04629); assay: Inhibition of baculovirus expressed human trkA
[3] = Relative binding to PKC and TrkA
[4] = target: T1, High affinity nerve growth factor receptor; assay: Inhibition of NGF-stimulated TrkA phosphorylation in NIH3T3 cells; type: cell-based

T1 sequence (P04629 whole entry): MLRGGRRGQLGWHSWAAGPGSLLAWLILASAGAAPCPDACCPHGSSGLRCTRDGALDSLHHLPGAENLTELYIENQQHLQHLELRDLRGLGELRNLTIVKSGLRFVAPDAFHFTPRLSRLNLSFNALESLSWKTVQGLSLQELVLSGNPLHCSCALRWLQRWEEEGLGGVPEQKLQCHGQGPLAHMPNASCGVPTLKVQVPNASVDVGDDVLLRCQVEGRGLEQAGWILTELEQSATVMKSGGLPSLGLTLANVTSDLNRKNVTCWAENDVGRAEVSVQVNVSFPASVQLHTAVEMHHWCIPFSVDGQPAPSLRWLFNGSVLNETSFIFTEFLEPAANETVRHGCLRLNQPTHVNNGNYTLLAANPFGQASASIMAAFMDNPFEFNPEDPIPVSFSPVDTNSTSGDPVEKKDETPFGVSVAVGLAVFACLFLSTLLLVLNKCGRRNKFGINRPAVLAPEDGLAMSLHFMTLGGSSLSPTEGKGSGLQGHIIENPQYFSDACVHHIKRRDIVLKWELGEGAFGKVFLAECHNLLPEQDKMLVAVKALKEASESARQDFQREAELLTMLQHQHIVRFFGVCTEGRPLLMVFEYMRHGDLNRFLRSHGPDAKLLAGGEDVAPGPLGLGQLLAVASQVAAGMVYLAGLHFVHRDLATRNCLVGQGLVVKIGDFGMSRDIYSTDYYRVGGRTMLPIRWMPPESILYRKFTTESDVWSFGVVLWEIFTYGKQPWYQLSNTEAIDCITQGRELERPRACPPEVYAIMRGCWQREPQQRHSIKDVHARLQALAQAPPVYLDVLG

| Structure (SMILES) | IC50 [1] [nM] | IC50 [2] [nM] | Ratio [3] | IC50 [4] [nM] |
| --- | --- | --- | --- | --- |
| CC1(C)O[C@@H](n2c3ccccc3c3c4c(c5c6ccccc6[nH]c5c32)CNC4=O)C[C@]1(O)CO | 218 | 4 |  |  |
| CO[C@]1(CO)C[C@H]2O[C@]1(C)n1c3ccccc3c3c4c(c5c6ccccc6n2c5c31)C(=O)NC4 | 114 | 2.9 | 39 |  |
| COC(=O)[C@@]1(O)C[C@H]2O[C@]1(C)n1c3ccccc3c3c4c(c5c6ccccc6n2c5c31)C(=O)NC4 [K-252A] | 250 |  |  |  |
| CC1(C)O[C@@H](n2c3ccccc3c3c4c(c5c6ccccc6[nH]c5c32)CNC4=O)C[C@@]1(O)CO | 79 | 4 |  |  |
| C[C@]1(O)C[C@H]2O[C@]1(C)n1c3ccccc3c3c4c(c5c6ccccc6n2c5c31)C(=O)NC4 | 850 | 3 |  | < 10 |
| COC(=O)[C@]1(O)C[C@H]2O[C@]1(C)n1c3ccccc3c3c4c(c5c6ccccc6n2c5c31)C(=O)NC4 | 114 |  |  |  |
| C[C@@]1(O)C[C@H]2O[C@]1(C)n1c3ccccc3c3c4c(c5c6ccccc6n2c5c31)C(=O)NC4 | 310 | 20 |  |  |
| C[C@]12O[C@H](C[C@@]1(O)C(N)=O)n1c3ccccc3c3c4c(c5c6ccccc6n2c5c31)CNC4=O | 663 | 29 |  |  |

— ChEMBL document CHEMBL1139527, “Synthesis, modeling, and in vitro activity of (3'S)-epi-K-252a analogues. Elucidating the stereochemical requirements of the 3'-sugar alcohol on trkA tyrosine kinase activity” (J Med Chem, 2005)
